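1) Cells in 96-well plates. 2) Compound, 48 h, 5 concentrations. 3) Linear interpolation between surrounding doses. 4) Unreached endpoint = highest concentration. The concentration for 50% growth inhibition is given as GI50. The concentration for full growth arrest is given as TGI.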
Each molecule was assayed on HT29 colon (assay: inhibition of tumour cell growth, NCI panel, 48 h).
In the case of `N#CN/C(N)=N/CO`, the TGI is reported as greater than 100 µM.

What follows are molecules tested on SF-268 CNS (assay: inhibition of tumour cell growth, NCI panel, 48 h).
Molecule `N.N.N.N.O=C([O-])CCl.O=C([O-])CCl.[Co+3].[O-][Cl+3]([O-])([O-])[O-]` has a GI50 greater than 100 µM and a TGI greater than 100 µM. Molecule `COC(=O)C1=C(OC(=O)/C(=C/c2ccc(Cl)cc2)c2ccc(Cl)cc2)C(C(=O)OC)[C@@]2(O)[C@@H](C(=O)OC)[C@H](C)C[C@@H]1[C@@H]2C(=O)OC` (stereo partly drawn) has a TGI greater than 100 µM. For `CC(C)CCC1CC2C(=O)N(c3ccccc3)C(=O)C2c2[nH]c3ccccc3c21` (stereo not drawn), the TGI was 13.5 µM. `CCCCCCCCCCCCCC(=O)OCC(C[As](=O)(O)O)OC(=O)CCCCCCCCCCCCC` (stereo not drawn) showed a TGI greater than 100 µM. Work on `O=C(CCN(C(=O)O)S(=O)(=O)c1ccc(NC(=O)c2ccccc2)cc1)Nc1ccccc1` yielded a TGI greater than 100 µM. Work on `N#CN/C(N)=N/CO` yielded a TGI greater than 100 µM.

What follows are molecules tested on SF-539 CNS (assay: inhibition of tumour cell growth, NCI panel, 48 h).
For `N.N.N.N.O=C([O-])CCl.O=C([O-])CCl.[Co+3].[O-][Cl+3]([O-])([O-])[O-]`, the GI50 was greater than 100 µM and the TGI was greater than 100 µM. `COC(=O)C1=C(OC(=O)/C(=C/c2ccc(Cl)cc2)c2ccc(Cl)cc2)C(C(=O)OC)[C@@]2(O)[C@@H](C(=O)OC)[C@H](C)C[C@@H]1[C@@H]2C(=O)OC` (stereo partly drawn) was tested, and the TGI was greater than 100 µM. Work on `CC(C)CCC1CC2C(=O)N(c3ccccc3)C(=O)C2c2[nH]c3ccccc3c21` (stereo not drawn) yielded a TGI of 10.8 µM. With `CCCCCCCCCCCCCC(=O)OCC(C[As](=O)(O)O)OC(=O)CCCCCCCCCCCCC` (stereo not drawn) the TGI was greater than 100 µM. `O=C(CCN(C(=O)O)S(=O)(=O)c1ccc(NC(=O)c2ccccc2)cc1)Nc1ccccc1` was tested, and the TGI was greater than 100 µM. With `N#CN/C(N)=N/CO` the TGI was greater than 100 µM.

Each molecule was assayed on MALME-3M melanoma (assay: inhibition of tumour cell growth, NCI panel, 48 h).
With `N.N.N.N.O=C([O-])CCl.O=C([O-])CCl.[Co+3].[O-][Cl+3]([O-])([O-])[O-]` the GI50 was greater than 100 µM and the TGI was greater than 100 µM. `COC(=O)C1=C(OC(=O)/C(=C/c2ccc(Cl)cc2)c2ccc(Cl)cc2)C(C(=O)OC)[C@@]2(O)[C@@H](C(=O)OC)[C@H](C)C[C@@H]1[C@@H]2C(=O)OC` (stereo partly drawn) showed a TGI greater than 100 µM. In the case of `CC(C)CCC1CC2C(=O)N(c3ccccc3)C(=O)C2c2[nH]c3ccccc3c21` (stereo not drawn), the TGI is reported as 15.1 µM. In the case of `CCCCCCCCCCCCCC(=O)OCC(C[As](=O)(O)O)OC(=O)CCCCCCCCCCCCC` (stereo not drawn), the TGI is reported as greater than 100 µM. `O=C(CCN(C(=O)O)S(=O)(=O)c1ccc(NC(=O)c2ccccc2)cc1)Nc1ccccc1` was tested, and the TGI was greater than 100 µM. With `N#CN/C(N)=N/CO` the TGI was greater than 100 µM.

The molecules below were run on HS 578T breast (assay: inhibition of tumour cell growth, NCI panel, 48 h).
Molecule `COC(=O)C1=C(OC(=O)/C(=C/c2ccc(Cl)cc2)c2ccc(Cl)cc2)C(C(=O)OC)[C@@]2(O)[C@@H](C(=O)OC)[C@H](C)C[C@@H]1[C@@H]2C(=O)OC` (stereo partly drawn) has a TGI greater than 100 µM.

What follows are molecules tested on NCI/ADR-RES ovarian (assay: inhibition of tumour cell growth, NCI panel, 48 h).
`COC(=O)C1=C(OC(=O)/C(=C/c2ccc(Cl)cc2)c2ccc(Cl)cc2)C(C(=O)OC)[C@@]2(O)[C@@H](C(=O)OC)[C@H](C)C[C@@H]1[C@@H]2C(=O)OC` (stereo partly drawn) showed a TGI greater than 100 µM.

These molecules were tested on MDA-N (assay: inhibition of tumour cell growth, NCI panel, 48 h).
`COC(=O)C1=C(OC(=O)/C(=C/c2ccc(Cl)cc2)c2ccc(Cl)cc2)C(C(=O)OC)[C@@]2(O)[C@@H](C(=O)OC)[C@H](C)C[C@@H]1[C@@H]2C(=O)OC` (stereo partly drawn) was tested, and the TGI was greater than 100 µM.

Each molecule was assayed on SK-OV-3 ovarian (assay: inhibition of tumour cell growth, NCI panel, 48 h).
With `N.N.N.N.O=C([O-])CCl.O=C([O-])CCl.[Co+3].[O-][Cl+3]([O-])([O-])[O-]` the GI50 was greater than 100 µM and the TGI was greater than 100 µM. Molecule `COC(=O)C1=C(OC(=O)/C(=C/c2ccc(Cl)cc2)c2ccc(Cl)cc2)C(C(=O)OC)[C@@]2(O)[C@@H](C(=O)OC)[C@H](C)C[C@@H]1[C@@H]2C(=O)OC` (stereo partly drawn) has a TGI greater than 100 µM. With `CC(C)CCC1CC2C(=O)N(c3ccccc3)C(=O)C2c2[nH]c3ccccc3c21` (stereo not drawn) the TGI was 32.2 µM. `CCCCCCCCCCCCCC(=O)OCC(C[As](=O)(O)O)OC(=O)CCCCCCCCCCCCC` (stereo not drawn) gave a TGI greater than 100 µM. Work on `O=C(CCN(C(=O)O)S(=O)(=O)c1ccc(NC(=O)c2ccccc2)cc1)Nc1ccccc1` yielded a TGI greater than 100 µM. `N#CN/C(N)=N/CO` showed a TGI greater than 100 µM.

The molecules below were run on A498 renal (assay: inhibition of tumour cell growth, NCI panel, 48 h).
With `N.N.N.N.O=C([O-])CCl.O=C([O-])CCl.[Co+3].[O-][Cl+3]([O-])([O-])[O-]` the GI50 was greater than 100 µM and the TGI was greater than 100 µM. `COC(=O)C1=C(OC(=O)/C(=C/c2ccc(Cl)cc2)c2ccc(Cl)cc2)C(C(=O)OC)[C@@]2(O)[C@@H](C(=O)OC)[C@H](C)C[C@@H]1[C@@H]2C(=O)OC` (stereo partly drawn) was tested, and the TGI was greater than 100 µM. For `CC(C)CCC1CC2C(=O)N(c3ccccc3)C(=O)C2c2[nH]c3ccccc3c21` (stereo not drawn), the TGI was 16 µM. `CCCCCCCCCCCCCC(=O)OCC(C[As](=O)(O)O)OC(=O)CCCCCCCCCCCCC` (stereo not drawn) showed a TGI greater than 100 µM. Molecule `O=C(CCN(C(=O)O)S(=O)(=O)c1ccc(NC(=O)c2ccccc2)cc1)Nc1ccccc1` has a TGI greater than 100 µM. Work on `N#CN/C(N)=N/CO` yielded a TGI greater than 100 µM.

What follows are molecules tested on SNB-75 CNS (assay: inhibition of tumour cell growth, NCI panel, 48 h).
With `N.N.N.N.O=C([O-])CCl.O=C([O-])CCl.[Co+3].[O-][Cl+3]([O-])([O-])[O-]` the GI50 was 61.3 µM and the TGI was greater than 100 µM. Molecule `COC(=O)C1=C(OC(=O)/C(=C/c2ccc(Cl)cc2)c2ccc(Cl)cc2)C(C(=O)OC)[C@@]2(O)[C@@H](C(=O)OC)[C@H](C)C[C@@H]1[C@@H]2C(=O)OC` (stereo partly drawn) has a TGI greater than 100 µM. For `CC(C)CCC1CC2C(=O)N(c3ccccc3)C(=O)C2c2[nH]c3ccccc3c21` (stereo not drawn), the TGI was 9.25 µM. Molecule `CCCCCCCCCCCCCC(=O)OCC(C[As](=O)(O)O)OC(=O)CCCCCCCCCCCCC` (stereo not drawn) has a TGI greater than 100 µM. Molecule `O=C(CCN(C(=O)O)S(=O)(=O)c1ccc(NC(=O)c2ccccc2)cc1)Nc1ccccc1` has a TGI greater than 100 µM. `N#CN/C(N)=N/CO` gave a TGI greater than 100 µM.

What follows are molecules tested on NCI-H226 lung (assay: inhibition of tumour cell growth, NCI panel, 48 h).
Molecule `COC(=O)C1=C(OC(=O)/C(=C/c2ccc(Cl)cc2)c2ccc(Cl)cc2)C(C(=O)OC)[C@@]2(O)[C@@H](C(=O)OC)[C@H](C)C[C@@H]1[C@@H]2C(=O)OC` (stereo partly drawn) has a TGI greater than 100 µM. Molecule `CC(C)CCC1CC2C(=O)N(c3ccccc3)C(=O)C2c2[nH]c3ccccc3c21` (stereo not drawn) has a TGI of 12.4 µM.

— PubChem BioAssay (NCI)
